Earlier results on 2 compounds are cited in patent publication US12514855B2 (IRR, Inc., priority 2020, dated 2026).

The conditions of data set [1]: in vivo.
The conditions of data set [2]: in vivo. This is another data set of the same source.
Another data set deals with H1 receptor (Homo sapiens, UniProt P35367). Conditions: in an acidic pH.
For data set [3], the system named is histamine induced wheal and flare.
The conditions of data set [4]: with warfarin, theophylline, digoxin, terfenadine, oral contraceptives, or prednisone.
Where [5] appears, read: airway epithelial cells from nose and lung.

Chain of H1 receptor (P35367 whole entry): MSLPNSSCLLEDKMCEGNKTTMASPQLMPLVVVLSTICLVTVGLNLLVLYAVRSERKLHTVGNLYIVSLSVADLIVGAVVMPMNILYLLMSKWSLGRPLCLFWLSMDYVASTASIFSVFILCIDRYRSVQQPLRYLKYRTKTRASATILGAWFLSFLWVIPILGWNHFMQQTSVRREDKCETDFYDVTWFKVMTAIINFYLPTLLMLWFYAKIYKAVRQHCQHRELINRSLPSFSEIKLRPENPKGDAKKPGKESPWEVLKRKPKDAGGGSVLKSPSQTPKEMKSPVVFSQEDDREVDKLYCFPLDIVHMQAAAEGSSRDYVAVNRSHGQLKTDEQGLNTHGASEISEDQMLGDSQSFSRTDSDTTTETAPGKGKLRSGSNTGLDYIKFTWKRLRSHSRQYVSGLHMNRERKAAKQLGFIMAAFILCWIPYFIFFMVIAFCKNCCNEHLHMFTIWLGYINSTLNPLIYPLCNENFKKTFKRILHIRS

For `O=C(O)COCCN1CCN([C@H](c2ccccc2)c2ccc(Cl)cc2)CC1` [levocetirizine], in the data set with human rhinovirus (HRV) (setting [5]), the HRV viral replication result is “inhibit”, the “HRV-induced ICAM-1” value is “inhibit” and the HRV-induced cytokine expression result is “inhibit”. Besides, the “levels of HRV-induced increases in ICAM-1” value in the data set on human rhinovirus (HRV) (levocetirizine added before, after, or at the time of the HRV infection) is recorded as “reduced”. The “dose that can be safely administered” value in data set [1] was “up to 30 mg/day”. The “time to steady state level” value in data set [2] was 40 h. Further, the “receptor affinity over first generation mepyramine” value at H1 receptor is recorded as 5 ×. Besides, the “potency through histamine induced wheal and flare data” value in data set [3] (compared with modern generation antihistamines) is “most potent of the five modern generation antihistamines”. The effectiveness versus fexofenadine result in data set [3] (levocetirizine 5 mg per day vs fexofenadine 180 mg per day) was “more effective than fexofenadine”.

For `CC(C)(O)c1ccccc1CC[C@@H](SCC1(CC(=O)O)CC1)c1cccc(/C=C/c2ccc3ccc(Cl)cc3n2)c1` [montelukast], the drug interactions result in data set [4] is reported as “no drug interactions”.
